The test system of test [1] is A549 lung cancer cell line. The test can be described thus: MTT cytotoxicity assay on A549 lung cancer cells. Type of test: cell-based, human. The settings on record: for IC50: Homo sapiens, A549 cells, MTT, mean ± SD; for SI: selectivity index: L929 versus A549. The procedure: (§1) The synthesized final compounds (2a–2o) were initially evaluated for their cytotoxic effects to assess their anticancer activity against A549 lung cancer cells. The healthy cell line L929 (mouse fibroblast cell line) was also used to determine the selective antiproliferative properties of the compounds.
(§2) The human lung cancer cell line A549 and mouse fibroblast cell line L929 were used to evaluate the cytotoxicity of the compounds. Cells propagated under the specified conditions were cultured in 96-well plates at 5 × 10^3 cells/well. […] At the end of the incubation period, cell viability was determined by measuring the absorbance of the purple color formed by the breakdown of the MTT dye at 540 nm. Half-maximal inhibitory concentrations (IC50) were determined based on the tested concentrations of the compounds. The tests were triplicated.[38] The MTT assay for cytotoxicity of compounds was determined according to previously published procedures.[39],[40]
(§3) The concentration that inhibits 50% of the cell population was calculated as IC50 using GraphPad Prism 9.0 statistical software program, and standard deviation values were analyzed. Data are expressed as mean ± SD. Comparisons were made using one-way ANOVA for continuous variables with normal distribution, and Tukey’s test was used for post hoc analysis of group differences. p < 0.05 was considered statistically significant.
(§4) The cell viability value of the control group was considered 100%, and all viability values were calculated using the formula below. The experiment was performed in 3 replicates. [drawing 2]
On the technique in general: Tetrazolium dyes change colour on reduction, which living cells bring about.

In test [2] the target is T1, MMP-9 enzyme (Homo sapiens, UniProt P14780).
T1 construct: purchased Enzo Life Sciences Inc. (Farmingdale, NY, USA)
T1 sequence (P14780 107-444 limits assumed): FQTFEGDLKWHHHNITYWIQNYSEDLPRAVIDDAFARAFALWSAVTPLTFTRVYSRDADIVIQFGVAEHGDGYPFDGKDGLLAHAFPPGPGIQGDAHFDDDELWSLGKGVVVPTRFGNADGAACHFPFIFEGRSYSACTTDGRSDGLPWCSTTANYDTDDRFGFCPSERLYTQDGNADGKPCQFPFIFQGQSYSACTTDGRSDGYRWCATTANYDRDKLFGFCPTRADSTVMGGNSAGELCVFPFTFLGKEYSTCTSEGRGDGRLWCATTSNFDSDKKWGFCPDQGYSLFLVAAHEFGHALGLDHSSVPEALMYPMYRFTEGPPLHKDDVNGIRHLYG
As to the kind of experiment: MMP-9 enzyme inhibition, colorimetric kit. Type of test: biochemical. The settings on record: for inhibition at 100 µM: compounds at 100 μM, mean ± SD. How it is done:
Compounds (2a–2o) were tested to determine their MMP-9 enzyme inhibition potential. The compounds were tested at a concentration of 100 μM, and the standard molecule NNGH at a concentration of 1.3 μM.
MMP-9 inhibition was assessed using a colorimetric kit from Enzo Life Sciences Inc. (Farmingdale, NY, USA), following procedures similar to those described in previous studies.[25],[26] A thiopeptide was used as a chromogenic substrate (Ac-PLG-[2-mercapto-4-methyl-pentanoyl]-LG-OC2H5). 2-Nitro-5-thiobenzoic acid, formed by the reaction of the sulfhydryl group produced as a result of hydrolysis of the thioester by the MMP-9 enzyme and then reaction with DTNB [5,5′-dithiobis(2-nitrobenzoic acid), Ellman’s reagent], gives absorbance at 412 nm in a microplate reader (BioTek, PowerWave, Gen5 software, Winooski, VT, USA). Based on these absorptions, MMP-9 inhibition concentrations were determined. The assays were performed in triplicate. NNGH (N-isobutyl-N-(4-methoxyphenylsulfonyl)glycyl hydroxamic acid) was used as a control inhibitor. Data were shown as mean ± SD. The inhibitor % remaining activity of MMPs was calculated using the following equation:
Inhibitor% activity remaining = (V inhibitor/V control) × 100.
The inhibition (percent) of MMPs was calculated using the following equation: [drawing 1]

Test [3] deals with L929 (mouse fibroblast cell line). As to the kind of experiment: MTT cytotoxicity assay on L929 healthy cells. The settings on record: mean ± SD. Type of test: cell-based. The procedure: as §1, §2, §3, §4

The source of these data is PMC12059926, “Development and Biological Assessment of Thiazole-Based Pyridines for Targeted Therapy in Lung Cancer” (ACS Omega, 2025).

≈ marks a conversion by molar mass, not a printed value. Where only a bound is given, the exact number is not on record here.

As to `COc1ccc(OC)c(-c2csc(NN=Cc3cccnc3)n2)c1` [Compound 2f, 4-(2,5-Dimethoxyphenyl)-2-(2-(pyridin-3-ylmethylene)hydrazinyl)thiazole], the figures for the concentration for half-maximal inhibition (IC50) in test [1] and in test [3] were 4.04 ± 0.29 µg/mL (≈ 11.9 µM) and 14 ± 0.57 µg/mL (≈ 41 µM), respectively. For the same molecule, the inhibition (in general, the change of the read-out against control, counted positive when it falls) at 100 µM in test [2] was 70.8 ± 2.2%.

Take `Oc1ccc(-c2csc(NN=Cc3cccnc3)n2)cc1O` [Compound 2i, 4-(2-(2-(Pyridin-3-ylmethylene)hydrazinyl)thiazol-4-yl)benzene-1,2-diol]: the IC50 – broadly, the point on the concentration scale where inhibition reaches its midpoint – was 7.2 ± 0.95 µg/mL (≈ 23.1 µM) in test [1] and over 250 µg/mL in test [3]. Moreover, at 100 µM the inhibition in test [2] was 40.6 ± 3.01%.

`COc1ccc(OC)c(-c2csc(NN=Cc3ccncc3)n2)c1` [Compound 2k, 4-(2,5-Dimethoxyphenyl)-2-(2-(pyridin-4-ylmethylene)hydrazinyl)thiazole]: in test [1], the IC50 is 6.07 ± 0.31 µg/mL (≈ 17.8 µM) and the “SI: selectivity index” value worked out at 1.42. The “MMP-9 inhibition, result in words” value in test [2] (compared with 2f) was “less active than 2f (2,5-dimethoxypehnyl) or inactive”. Besides, the IC50 in test [3] is 8.59 ± 0.32 µg/mL (≈ 25.2 µM).

`Oc1ccc(-c2csc(NN=Cc3ccncc3)n2)cc1O` [Compound 2n, 4-(2-(2-(Pyridin-4-ylmethylene)hydrazinyl)thiazol-4-yl)benzene-1,2-diol]: in test [1], the IC50 was 4.23 ± 0.54 µg/mL (≈ 13.5 µM) and the “SI: selectivity index” value was found to be 1.06. The inhibition at 100 µM in test [2] was 19 ± 3.63%. In addition, in test [3], inhibition was half-maximal at 4.48 ± 0.68 µg/mL (≈ 14.3 µM) (IC50).
